Experiment: Concentration of trehalose dissolved in PBS
Assay type: physicochemical
Settings: PBS at 37° C.
Method: Also, the maximum concentration of trehalose was set to 50% because the concentration of trehalose dissolved in PBS at 37° C. was about 50%.

SMILES: OC[C@H]1O[C@H](O[C@H]2O[C@H](CO)[C@@H](O)[C@H](O)[C@H]2O)[C@H](O)[C@@H](O)[C@@H]1O [trehalose]
- concentration of trehalose dissolved in PBS: about 50%

Reference: patent publication US10660977B2, “Method for treating biological tissue and biological tissue” (WASEDA UNIVERSITY, priority 2012, dated 2020)
